Data as given in patent publication EP0160258A2, “(6,11-Dihydro-11-oxodibenz(bm,e)oxepinyl)pentanols, a process and intermediates for their preparation and their use as medicaments” (HOECHST-ROUSSEL PHARMACEUTICALS INCORPORATED, priority 1984, dated 1985).
Read-outs that look alike come from different tables or passages of the source.

Tested on: adjuvant-induced polyarthritis
Assay: adjuvant-induced polyarthritis syndrome in rats (paw volume)
Format: in vivo
Settings: Rattus norvegicus, 504 h, dose effecting 50 % inhibition of paw volume, oral, day before adjuvant and continued for 21 days, male Charles River-Wistar Lewis rats
Protocol: The (6,11-dihydro-11-oxodibenz[b,e]oxepinyl)pentanols and derivatives thereof of the present invention are useful as antiarthritic agents due to their ability to specifically suppress arthritis-type inflammation in mammals. […] M. Perrone and F. D. Wood, Arthritis and Rheumatism, 2, 440 (1959).
Groups of 10 male Charles River-Wistar Lewis rats weighing 150 to 175 g were individually housed and maintained on a regular rat chow diet. Water was given ad libitum. The adjuvant was prepared by suspending 75 mg of Mycobacterium butyricum (Difeo Laboratories, Detroit, Michigan) in 10 ml of white paraffin oil with continuous stirring for 2 hrs at room temperature prior to administration. Test compounds are prepared by suspending the drug in water, adding one drop of Tween 80 per 10 ml of suspension, and homogenizing. The adjuvant suspension (0.1 ml) was injected into the footpad of the left hind paw of the rat. Test compound suspensions were administered orally (10 ml/kg) the day before adjuvant suspension injection and the administration was continued for 21 days. One group of ten rats was used for the test drug, standard, adjuvant-injected control and non-injected control. Control animals received vehicle (10 ml/kg). Three doses of test drug and one dose of standard preparation were used. Injected and non-injected paw volumes were determined on the day the adjuvant suspension was given, and in subsequent days thereafter (usually days 5, 10, 18 and 21) by the method of C. A. Wilson, et al., Proc. Soc. Exp. Biol. Med., 111 544 (1962).
The percent inhibition of paw volume (injected and non-injected hind paw) was calculated by the following formula: [formula] ED50-values, i.e., the dose at which the drug effects a 50 % inhibition of paw volume, were estimated by the method of J. T. Litchfield and F. Wilcoxon, J. Pharm. Exp. Thes., 96, 99 (1948), and statistically evaluated by means of the sudent "t" test.

[1] = injected hind paw, read-out: ED50 (injected)
[2] = non-injected hind paw, read-out: ED50 (non-injected)

| Compound | ED50 [1] [mg/kg] | ED50 [2] [mg/kg] |
| --- | --- | --- |
| CC(CCCO)c1ccc2c(c1)C(=O)c1ccccc1CO2 (stereo not shown) [4-(6,11-Dihydro-11-oxodibenz[b,e]oxepin-2-yl)pentanol] | 5.6 | 3.9 |
| CCCCC1C(=O)N(c2ccccc2)N(c2ccccc2)C1=O [phenylbutazone] | 12 | 6.8 |
